From ChEMBL document CHEMBL1139406, “Anti-HIV-1 activity of phloroglucinol derivative, 6,6'-bieckol, from Ecklonia cava” (Bioorg Med Chem, 2008)
Activity calls are given as the source filed them. The calls are words filed in the database; no cut-off is given here.

Columns and labels:
[1] = test system: Human immunodeficiency virus 1; test: Antiviral activity against HIV1 3B in human CEM-SS cells assessed as inhibition of viral-induced lytic effect at 25 uM after 7 days by MTT assay; assay type: functional; design: scale not given: the % may be the effect or the level left
[2] = test system: Human immunodeficiency virus 1; test: Antiviral activity against HIV1 3B in human H9 cells assessed as inhibition of p24 gag protein production after 4 days by Western blot analysis; assay type: functional, organism-based
[3] = target: Protease (Human immunodeficiency virus 1) (UniProt Q9YQ12); test: (§1) Inhibition of HIV1 3B recombinant protease
[4] = Cytotoxicity against human CEM-SS cells after 72 hrs by MTT assay; assay type: cell-based
[5] = test system: Human immunodeficiency virus 1; test: Antiviral activity against HIV1 3B in human C8166 co-cultivated with H9 cells assessed as inhibition of cell-cell fusion after 72 hrs; assay type: functional, organism-based
[6] = test system: Human immunodeficiency virus 1; test: Antiviral activity against HIV1 3B in human H9 cells assessed as inhibition of p41 gag protein production after 4 days by Western blot analysis; assay type: functional, organism-based
[7] = test system: CEM-SS; test: Cytotoxicity against human CEM-SS cells up to 500 by MTT assay; assay type: cell-based
[8] = test system: Human immunodeficiency virus 1; test: Antiviral activity against HIV1 3B in human H9 cells assessed as inhibition of p24 antigen production at 10 uM by ELISA; assay type: functional; conditions: Human immunodeficiency virus 1, 3B
[9] = test system: Human immunodeficiency virus 1; test: Antiviral activity against HIV1 3B in human C8166 cells assessed as inhibition of viral-induced syncytia formation after 72 hrs; assay type: functional, organism-based; conditions: Human immunodeficiency virus 1, 3B, C8166, 72 h
[10] = target: Human immunodeficiency virus type 1 reverse transcriptase (Human immunodeficiency virus 1) (UniProt Q72547); test: Inhibition of HIV1 3B reverse transcriptase activity at 1 uM
[11] = test system: Human immunodeficiency virus 1; test: Antiviral activity against HIV1 3B in human CEM-SS cells assessed as inhibition of viral-induced lytic effect after 7 days by MTT assay; assay type: functional, organism-based; conditions: Human immunodeficiency virus 1, 3B, 168 h
[12] = test system: Human immunodeficiency virus 1; test: Antiviral activity against HIV1 3B in human H9 cells assessed as inhibition of p24 antigen production by ELISA; assay type: functional, organism-based; conditions: Human immunodeficiency virus 1, 3B
[13] = test system: Human immunodeficiency virus 1; test: Antiviral activity against HIV1 3B in human H9 cells assessed as inhibition of p55 gag protein production after 4 days by Western blot analysis; assay type: functional, organism-based
[14] = target: Human immunodeficiency virus type 1 reverse transcriptase (Human immunodeficiency virus 1, UniProt Q72547); test: Inhibition of HIV1 3B reverse transcriptase activity
[15] = Therapeutic index, ratio of CC50 for human CEM-SS cells to IC50 for HIV1 induced lytic effect; assay type: cell-based; conditions: read-out: TI
[16] = test system: Human immunodeficiency virus 1; test: Antiviral activity against HIV1 3B in human H9 cells assessed as inhibition of p24 antigen production at 25 uM by ELISA; assay type: functional, organism-based
[17] = test system: Human immunodeficiency virus 1; test: Antiviral activity against HIV13B in human C8166 co-cultivated with H9 cells assessed as inhibition of viral-induced syncytia formation at 25 uM after 72 hrs; assay type: functional, 3B; design: scale not given: the % may be the effect or the level left
[18] = target: Human immunodeficiency virus type 1 reverse transcriptase (Human immunodeficiency virus 1) (UniProt Q72547); test: Inhibition of HIV1 3B reverse transcriptase activity at 10 uM
[19] = test system: Human immunodeficiency virus 1; test: Antiviral activity against HIV1 3B in human C8166 cells assessed as inhibition of viral-induced syncytia formation at 25 uM after 72 hrs; assay type: functional; design: scale not given: the % may be the effect or the level left
[20] = test system: Human immunodeficiency virus 1; test: Antiviral activity against HIV1 3B in human C8166 co-cultivated with H9 cells assessed as inhibition of cell-virus fusion after 72 hrs; assay type: functional, organism-based
[21] = target: Protease (Human immunodeficiency virus 1, UniProt Q9YQ12); test: as §1
[22] = test system: Human immunodeficiency virus 1; test: Antiviral activity against HIV1 3B in human H9 cells assessed as inhibition of p24 antigen production at 5 uM by ELISA; assay type: functional, organism-based

Chain of Protease (Q9YQ12 whole entry): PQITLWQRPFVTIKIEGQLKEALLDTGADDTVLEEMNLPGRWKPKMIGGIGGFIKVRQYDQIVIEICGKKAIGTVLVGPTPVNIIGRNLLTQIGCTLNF
Chain of Protease (Human immunodeficiency virus 1) (Q9YQ12 as listed by the source): as the sequence (Q9YQ12 whole entry) above

Compound: Oc1cc(O)cc(Oc2c(O)cc(O)c3c2Oc2c(O)cc(O)c(-c4c(O)cc(O)c5c4Oc4c(O)cc(O)c(Oc6cc(O)cc(O)c6)c4O5)c2O3)c1
- Activity [1]: >96%
- Activity [2]: Dose-dependent effect
- Activity [3]: inactive
- CC50 at 72 h [4]: 484000 nM
- Activity [5]: Active
- Activity [6]: Active
- Activity [7]: Non-toxic
- inhibition at 10 µM [8]: 90%
- EC50 [9]: 1720 nM
- inhibition [10]: 50.5%
- EC50 [11]: 1230 nM
- EC50 [12]: 1260 nM
- Activity [13]: Active
- EC50 [14]: 1070 nM
- selectivity ratio [15]: 393
- Activity [16]: Active
- Activity [17]: 80%
- inhibition [18]: 96.3%
- Activity [19]: 88%
- Activity [20]: Active

Compound: Oc1cc(O)cc(Oc2c(O)cc(O)c3c2Oc2c(cc(O)c(-c4c(O)cc5c(c4O)Oc4c(Oc6cc(O)cc(O)c6)c(O)cc(O)c4O5)c2O)O3)c1
- IC50 [21]: 81500 nM
- EC50 [14]: 510 nM

Compound: Cc1cn([C@H]2C[C@H](N=[N+]=[N-])[C@@H](CO)O2)c(=O)[nH]c1=O
- Activity [22]: Active
